The target in experiment [1] is T1, GGP1 (Arabidopsis thaliana, UniProt Q9M0A7).
T1 sequence (Q9M0A7 1-250): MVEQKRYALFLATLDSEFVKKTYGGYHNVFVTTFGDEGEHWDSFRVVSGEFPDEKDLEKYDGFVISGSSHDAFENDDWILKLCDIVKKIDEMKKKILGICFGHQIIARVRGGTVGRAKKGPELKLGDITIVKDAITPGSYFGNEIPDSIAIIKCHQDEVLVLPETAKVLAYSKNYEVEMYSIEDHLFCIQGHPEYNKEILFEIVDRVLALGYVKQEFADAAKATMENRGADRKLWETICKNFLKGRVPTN
Particulars: GS-X as substrate, 10 to 90 μM; purified recombinant His-tagged GGP1; ± SE; Michaelis-Menten fit.
Procedure: Recombinant GGP1 was expressed in E. coli from the vector pRSET-A (Invitrogen) as an N-terminal His-tag fusion. Cells were grown in LB medium and induced by adding 0.02 mM IPTG at an OD600 of 0.1-0.4. After 16 hours of incubation at 18° C. and 220 rpm, cells were harvested and resuspended in binding buffer [100 mM Tris-HCl, 500 mM NaCl, 50 mM imidazole, pH 7.5] supplemented with 1 mM PMSF and 1 mM MgCl. Cell lysis was achieved by lysozyme treatment and subsequent sonication. Cell debris was spun down for 20 min at 20 000 g, and the supernatant was run through a Ni-NTA column. The column was washed with binding buffer, and bound protein was released with elution buffer [100 mM Tris-HCl, 500 mM NaCl, 500 mM imidazole, pH 7.5]. As a control, a parallel purification was performed for an empty pRSET-A vector.
200 ng of purified GGP1 or 200 ng of control protein were assayed in a final volume of 100 μL containing 20 mM Tris-HCl pH 7.5 and 20 μM GS-X. The reactions were stopped after 10 min upon addition of 300 μL methanol. After an overnight incubation at −20° C., the mixture was spun down for 20 min at 5 000 g and 200 μL of the supernatant were evaporated and redisolved in 50 μL of 75% methanol. Analysis was performed using the LC-MS/MS method previously described. For the determination of Km, similar assays were performed using a range of GS-X concentrations spanning from 10 to 90 μM. […]

Experiment [2] deals with T1, GGP1. Briefly: In-vitro assay for GGP1 activity with the standard substrate GPNA (absorbance at 405 nm). Type of experiment: biochemical. On the set-up: His-tag (pRSET-A N-terminal leader) (N); made in house; host or cells: E. coli. Particulars: 1 mM GPNA, crude E. coli extract, linear part of the GGP1 curve. On the procedure: In vitro assays were assembled with […] of crude protein extract from a cleared E. coli lysate (before column purification) in 0.1 M Tris-HCl at pH 7.5 to a total volume of 150 μl. Assay is initiated by addition of GPNA to a final concentration of 1 mM and enzyme activity is measured by absorbance at 405 nm. Absorbance was measured with 5 minute intervals from time 0-20 minutes using a spectrophotometer.

Results on two molecules are retold here after patent US9096863B2, “Biosynthetic engineering of glucosinolates” (University of Denmark, priority 2008, dated 2015).

“And” between values parts separate entries of the source, which are not always exact repeats. Equal entries are not always repeated.

As a reminder, the Km is the substrate concentration at which the rate is half of its maximum. Take `NC(CCC(=O)NC(CSC(Cc1ccccc1)=NO)C(=O)NCC(=O)O)C(=O)O` [GS-X, S-(phenylacetohydroxymoyl)-L-glutathione]: the Km on GGP1 [1] was 56.6 µM and 57 µM. Turning to `N[C@@H](CCC(=O)Nc1ccc([N+](=O)[O-])cc1)C(=O)O` [GPNA, gamma-glutamyl-p-nitroanilide], the “activity of crude extract containing recombinant GGP1 versus control extract (cleavage to p-nitroanilide)” value at GGP1 [2] was “around 10 times”.
